This passage reports IC50 results from patent US11046658B2, “Aminopyrazine derivatives as PI3K-γ inhibitors” (Incyte Corporation, priority 2018, dated 2021).

The subject of this experiment is Phosphorylated Ribosomal Protein S6 (RPS6) in THP-1 cells. Briefly: THP-1 RPS6 ELISA Assay. The format is cell-based, Human. The conditions noted are these: Homo sapiens, THP-1 cells, 10 nM MCP-1, read-out: PI3Kγ_THP1_RPS6_ELISA IC50. The protocol:
To measure the Phosphorylated Ribosomal Protein S6 (RPS6) in cell lysates, THP-1 cells (Human Acute Monocytic Leukemia) are purchased from ATCC (Manassas, Va.) and maintained in RPMI with 10% FBS (Gibco/Life Technologies, Carlsbad, Calif.). For the assay, THP-1 cells are serum starved overnight in RPMI, then plated in RPMI (2×10^5 cells/well in 90 μL) into 96-well flat-bottom tissue culture treated plates (Corning, Corning, N.Y.), in the presence or absence of a concentration range of test compounds. Covered plates are incubated for 2 hours at 37° C., 5% CO2 then treated with or without 10 nM MCP-1(MYBioSource, San Diego, Calif.) for 15 minutes at 37° C., 5% CO2. Plates are centrifuged at 1600 RPM and supernatants are removed. Cells are lysed in Lysis Buffer (Cell Signaling, Danvers, Mass.) with Protease Inhibitor (Calbiochem/EMD, Germany), PMSF (Sigma, St Louis Mo.), HALTS (Thermo Fisher, Rockford, Ill.) for 30 min on wet ice. Cell lysates are frozen at −80 OC before testing. The lysates are tested in the Human/Mouse/Rat Phospho-RPS6 ELISA (R&D Systems, Inc. Minn, Minn.). The plate is measured using a microplate reader (SpectraMax M5—Molecular Devices, LLC Sunnyvale, Calif.) set to 450 nm with a wavelength correction of 540. IC50 determination is performed by fitting the curve of inhibitor percent inhibition versus the log of the inhibitor concentration using the GraphPad Prism 5.0 software.
On the technique in general: In an ELISA, binding on a coated surface is turned into a signal by an enzyme label.

Where a name gives a salt, the structure may show the parent alone. Read-outs that look alike come from different tables or passages of the source.

For orientation: IC50 means the concentration that gives 50% inhibition. On to `Cc1ccc(C(O)(C(N)=O)C(F)(F)F)cc1-c1cnc(N)c(C#Cc2cncnc2)n1` (stereo not drawn) [Example 56, 2-(3-(5-amino-6-(pyrimidin-5-ylethynyl)pyrazin-2-yl)-4-methylphenyl)-3,3,3-trifluoro-2-hydroxypropanamide], for which, for the setting “Table A2”, the half-inhibitory concentration (IC50) is below 100 nM.
Still for that read-out and setting: in the case of `Cc1ccc(C(O)(C(N)=O)C(F)(F)F)cc1-c1cnc(N)c(C#Cc2cnccn2)n1` (stereo not drawn) [Example 57, 2-(3-(5-amino-6-(pyrazin-2-ylethynyl)pyrazin-2-yl)-4-methylphenyl)-3,3,3-trifluoro-2-hydroxypropanamide] it was below 100 nM.
The same measure, in the same setting: in the case of `Cc1ccc(C(O)(C(N)=O)C(F)(F)F)cc1-c1cnc(N)c(C#Cc2ccc(C#N)cc2)n1` (stereo not drawn) [Example 58, 2-(3-(5-amino-6-((4-cyanophenyl)ethynyl)pyrazin-2-yl)-4-methylphenyl)-3,3,3-trifluoro-2-hydroxypropanamide] it was below 100 nM.
Same read-out and setting: in the case of `Cc1ccc(C(O)(C(N)=O)C(F)(F)F)cc1-c1cnc(N)c(C#Cc2ccc(CC#N)cc2)n1` (stereo not drawn) [Example 59, 2-(3-(5-amino-6-((4-(cyanomethyl)phenyl)ethynyl)pyrazin-2-yl)-4-methylphenyl)-3,3,3-trifluoro-2-hydroxypropanamide] it was below 100 nM; in that of `COc1cc(C#Cc2nc(-c3cc(C(O)(C(N)=O)C(F)(F)F)ccc3C)cnc2N)cc(OC)c1` (stereo not drawn) [Example 60, 2-(3-(5-amino-6-((3,5-dimethoxyphenyl)ethynyl)pyrazin-2-yl)-4-methylphenyl)-3,3,3-trifluoro-2-hydroxypropanamide], below 100 nM.
Turning to `Cc1ccc(C(O)(C(N)=O)C(F)(F)F)cc1-c1cnc(N)c(C#Cc2cccc(F)c2)n1` (stereo not drawn) [Example 61, 2-(3-(5-amino-6-((3-fluorophenyl)ethynyl)pyrazin-2-yl)-4-methylphenyl)-3,3,3-trifluoro-2-hydroxypropanamide], the 50% inhibitory concentration (IC50) (Table A2) was below 100 nM.
Same read-out and setting: then `Cc1ccc(C(O)(C(N)=O)C(F)(F)F)cc1-c1cnc(N)c(C#CC(C)(O)C(C)C)n1` (stereo not drawn) [Example 62, 2-(3-(5-amino-6-(3-hydroxy-3,4-dimethylpent-1-ynyl)pyrazin-2-yl)-4-methylphenyl)-3,3,3-trifluoro-2-hydroxypropanamide], with below 100 nM; and `Cc1ccc(C(O)(C(N)=O)C(F)(F)F)cc1-c1cnc(N)c(C#CC2CCOCC2)n1` (stereo not drawn) [Example 63, 2-(3-(5-amino-6-((tetrahydro-2H-pyran-4-yl)ethynyl)pyrazin-2-yl)-4-methylphenyl)-3,3,3-trifluoro-2-hydroxypropanamide], with below 100 nM.
As for `Cc1ccc(C(O)(C(N)=O)C(F)(F)F)cc1-c1cnc(N)c(C#CC2(C)CCOCC2)n1` (stereo not drawn) [Example 64, 2-(3-(5-amino-6-((4-methyltetrahydro-2H-pyran-4-yl)ethynyl)pyrazin-2-yl)-4-methylphenyl)-3,3,3-trifluoro-2-hydroxypropanamide], the IC50 (Table A2) was below 100 nM.
On the same count and under the same terms, then `Cc1ccc(C(O)(C(N)=O)C(F)(F)F)cc1-c1cnc(N)c(C#CC2(O)CCN(C)C2=O)n1` (stereo not drawn) [Example 65, 2-(3-(5-amino-6-((3-hydroxy-1-methyl-2-oxopyrrolidin-3-yl)ethynyl)pyrazin-2-yl)-4-methylphenyl)-3,3,3-trifluoro-2-], with below 100 nM.
For the compound `Cc1ccc(C(O)(C(N)=O)C(F)(F)F)cc1-c1cnc(N)c(-c2ccnn2C)n1` (stereo not drawn) [Example 69, 2-(3-(5-Amino-6-(1-methyl-1H-pyrazol-5-yl)pyrazin-2-yl)-4-methylphenyl)-3,3,3-trifluoro-2-hydroxypropanamide trifluoroacetate], the concentration for half-maximal inhibition (IC50) (Table A3) is below 100 nM.
The same measure, in the same setting: in the case of `Cc1ccc(-c2nc(-c3cc(C(O)(C(N)=O)C(F)(F)F)ccc3C)cnc2N)cn1` (stereo not drawn) [Example 82, 2-(3-(5-amino-6-(6-methylpyridin-3-yl)pyrazin-2-yl)-4-methylphenyl)-3,3,3-trifluoro-2-hydroxypropanamide bistrifluoroacetate] it was below 500 nM.
In the case of `Cc1ccc(C(O)(C(N)=O)C(F)(F)F)cc1-c1cnc(N)c(-c2ccc(C(F)(F)F)nc2)n1` (stereo not drawn) [Example 83, 2-(3-(5-amino-6-(6-(trifluoromethyl)pyridin-3-yl)pyrazin-2-yl)-4-methylphenyl)-3,3,3-trifluoro-2-hydroxypropanamide bistrifluoroacetate], the IC50 (Table A3) was below 500 nM.
With `Cc1ccc(C(O)(C(N)=O)C(F)(F)F)cc1-c1cnc(N)c(-c2cnc(C3CC3)s2)n1` (stereo not drawn) [Example 84, 2-(3-(5-amino-6-(2-cyclopropylthiazol-5-yl)pyrazin-2-yl)-4-methylphenyl)-3,3,3-trifluoro-2-hydroxypropanamide trifluoroacetate], the half-maximal inhibitory concentration (IC50) (Table A3) was below 500 nM.
The same measure, in the same setting: then `Cc1ccc(C(O)(C(N)=O)C(F)(F)F)cc1-c1cnc(N)c(-c2ccnc(CO)c2)n1` (stereo not drawn) [Example 85, 2-(3-(5-amino-6-(2-(hydroxymethyl)pyridin-4-yl)pyrazin-2-yl)-4-methylphenyl)-3,3,3-trifluoro-2-hydroxypropanamide bistrifluoroacetate], with below 500 nM.
The same measure, in the same setting: in the case of `Cc1ccc(C(O)(C(N)=O)C(F)(F)F)cc1-c1cnc(N)c(-c2ccc(CC#N)cc2)n1` (stereo not drawn) [Example 87, 2-(3-(5-amino-6-(4-(cyanomethyl)phenyl)pyrazin-2-yl)-4-methylphenyl)-3,3,3-trifluoro-2-hydroxypropanamide trifluoroacetate] it was below 500 nM; in that of `Cc1ccc(C(O)(C(N)=O)C(F)(F)F)cc1-c1cnc(N)c(-c2ccc(CO)cc2)n1` (stereo not drawn) [Example 88, 2-(3-(5-amino-6-(4-(hydroxymethyl)phenyl)pyrazin-2-yl)-4-methylphenyl)-3,3,3-trifluoro-2-hydroxypropanamide trifluoroacetate], below 500 nM.
Same read-out and setting: then `CNC(=O)c1ccc(-c2nc(-c3cc(C(O)(C(N)=O)C(F)(F)F)ccc3C)cnc2N)cc1` (stereo not drawn) [Example 89, 4-(3-amino-6-(5-(3-amino-1,1,1-trifluoro-2-hydroxy-3-oxopropan-2-yl)-2-methylphenyl)pyrazin-2-yl)-N-methylbenzamide trifluoroacetate], with below 500 nM.
In the case of `Cc1ccc(C(O)(C(N)=O)C(F)(F)F)cc1-c1cnc(N)c(-n2cccn2)n1` (stereo not drawn) [Example 93, 2-(3-(5-Amino-6-(1H-pyrazol-1-yl)pyrazin-2-yl)-4-methylphenyl)-3,3,3-trifluoro-2-hydroxypropanamide], the IC50 (Table A3) was below 100 nM.
The same measure, in the same setting: then `CNC(=O)C(O)(c1ccc(C)c(-c2cnc(N)c(-n3cncn3)n2)c1)C(F)(F)F` (stereo not drawn) [Example 94, 2-(3-(5-Amino-6-(1H-1,2,4-triazol-1-yl)pyrazin-2-yl)-4-methylphenyl)-3,3,3-trifluoro-2-hydroxy-N-methylpropanamide trifluoroacetate], with below 100 nM.
On the same count and under the same terms, in the case of `Cc1ccc(C(O)(C(N)=O)C(F)(F)F)cc1-c1cnc(N)c(-c2ccc(B(O)O)cc2)n1` (stereo not drawn) [Example 97, (4-(3-Amino-6-(5-(3-amino-1,1,1-trifluoro-2-hydroxy-3-oxopropan-2-yl)-2-methylphenyl)pyrazin-2-yl)phenyl)boronic acid] it was below 500 nM.
`Cc1ccc(C(O)(C(N)=O)C(F)F)cc1-c1cnc(N)c(-c2ccnn2C)n1` (stereo not drawn) [Example 98, 2-(3-(5-Amino-6-(1-methyl-1H-pyrazol-5-yl)pyrazin-2-yl)-4-methylphenyl)-3,3-difluoro-2-hydroxypropanamide]: the 50% inhibitory concentration (IC50) (Table A3) was below 100 nM.
As for `Cc1ncc(-c2nc(-c3cc(C(O)(C(N)=O)C(F)F)ccc3C)cnc2N)o1` (stereo not drawn) [Example 100, 2-(3-(5-amino-6-(2-methyloxazol-5-yl)pyrazin-2-yl)-4-methylphenyl)-3,3-difluoro-2-hydroxypropanamide], the IC50 (Table A3) was below 100 nM.
Same read-out and setting: in the case of `Cc1ccc(C(O)(C(N)=O)C(F)F)cc1-c1cnc(N)c(-c2cnn(C)n2)n1` (stereo not drawn) [Example 101, 2-(3-(5-amino-6-(2-methyl-2H-1,2,3-triazol-4-yl)pyrazin-2-yl)-4-methylphenyl)-3,3-difluoro-2-hydroxypropanamide] it was below 100 nM.
The same measure, in the same setting: in the case of `Cc1ccc(C(O)(CNC=O)C(F)(F)F)cc1-c1cnc(N)c(-c2cnc(C3CC3)s2)n1` (stereo not drawn) [Example 102, N-(2-(3-(5-amino-6-(2-cyclopropylthiazol-5-yl)pyrazin-2-yl)-4-methylphenyl)-3,3,3-trifluoro-2-hydroxypropyl)formamide trifluoroacetate] it was below 100 nM; in that of `CC(=O)NCC(O)(c1ccc(C)c(-c2cnc(N)c(-c3cnn(CC(F)(F)F)c3)n2)c1)C(F)(F)F` (stereo not drawn) [Example 104, N-(2-(3-(5-amino-6-(1-(2,2,2-trifluoroethyl)-1H-pyrazol-4-yl)pyrazin-2-yl)-4-methylphenyl)-3,3,3-trifluoro-2-hydroxypropyl)acetamide trifluoroacetate], below 100 nM; in that of `CC(=O)NCC(O)(c1ccc(C)c(-c2cnc(N)c(-c3cn[nH]c3)n2)c1)C(F)(F)F` (stereo not drawn) [Example 105, N-(2-(3-(5-amino-6-(1H-pyrazol-4-yl)pyrazin-2-yl)-4-methylphenyl)-3,3,3-trifluoro-2-hydroxypropyl)acetamide trifluoroacetate], below 100 nM.
